Measured values as given in patent US20230117286A1, “PHARMACEUTICAL COMPOSITION FOR PREVENTION OR TREATMENT OF NONALCOHOLIC STEATOHEPATITIS” (DONG-A ST CO., LTD., priority 2020, published 2023).

What was measured:
[1] = system: mouse model with induced nonalcoholic steatohepatitis; experiment: Plasma inflammation and fibrosis-related proteins (ELISA), NASH mice; type: in vivo, C57BL/6J mouse; conditions: FIG. 10
Method: (§1) A six-weeks-old male C57BL/6J mouse was fed with a special feed of high fat, high fructose, and high cholesterol (Research Diet, D09100301) for at least 27 weeks, and thus was induced to develop nonalcoholic steatohepatitis. After that, compound 1 was administered alone or in combination so that a daily dose reached 100 mg/kg/day. As the DPPIV inhibitor, evogliptin at 200 mg/kg/day or sitagliptin at 150 mg/kg/day was administered alone or in combination. As the PPAR agonist, elafibranor was administered alone or in combination so as to reach 30 mg/kg/day. As a method of administration alone or in combination, the above-described compound 1, DPPIV inhibitor, and/or PPAR agonist were prepared as a drug-diet admixture and supplied for 8 to 12 weeks.
To evaluate an effect on concentration of inflammation (CCL2, CXCl10, CXCl2, IL2 and TNFα) and fibrosis-related protein (TIMP1) in plasma, a concentration of CCL2, CXCl10, CXCl2, IL2, TNFα (MSD, K15255D-1) and TIMP1 (R&D Systems, MTM100) proteins in the plasma obtained from the mouse model was quantified by using a commercially available ELISA kit.

[2] = system: mouse model with induced nonalcoholic steatohepatitis; experiment: αSMA immunostaining in liver tissues, NASH mice; type: in vivo, C57BL/6J mouse; conditions: administered alone, compound 1 100 mg/kg/day
Method: as §1
To evaluate the effectiveness on fibrosis, an expression of a smooth muscle actin (αSMA) in a liver tissue section was measured through immunostaining so as to compare the ratio of activated stellate cells. After that, a ratio of the area stained by the αSMA antibody in the unit area was calculated through image analysis.

[3] = system: mouse model with induced nonalcoholic steatohepatitis; experiment: NAFLD activity score (HE histology) in mouse model with nonalcoholic steatohepatitis; type: in vivo, C57BL/6J mouse; conditions: administered alone, compound 1 100 mg/kg/day, compared to before treatment
Method: as §1
For a histological examination, liver tissues were isolated through biopsy and autopsy from the mouse model with induced nonalcoholic steatohepatitis prepared above before and after drug administration and were fixed in 10% formalin so as to prepare a paraffin block and obtain a 2 μm thick tissue section. After that, hematoxylin and eosin (HE) stain was performed by using an automatic stainer (Autostainer XL, Leica) in order to confirm an infiltration of inflammatory cells. A ratio of lipid droplets deposited in the stained liver tissues, a degree of infiltration of inflammatory cells and a degree of cell necrosis were expressed as NAFLD activity scores (NAS), and the results thereof are shown in FIGS. 2 and 3.

[4] = system: Primary human hepatic stellate cells; experiment: Pro-collagen 1a1 expression in TGFβ1-activated primary human hepatic stellate cells; type: cell-based; conditions: FIG. 13, TGFβ1 5 ng/ml, 18 hours; for protein expression of pro-collagen 1a1 induced by TGFβ1: each drug treated alone
Method: Primary human hepatic stellate cells (ScienCell, #5300) were stabilized for 24 hours, then cultured in a serum-free medium for 24 hours, and then treated with compound 1 in combination with elafibranor as a PPAR agonist, firsocostat as an ACC inhibitor, or obeticholic acid as a FXR agonist together with 5 ng/ml of recombinant […] (TGFβ1), after which the resulting cells were harvested in 18 hours later and an amount of pro-collagen 1a1 in total cell proteins was quantified with a commercialized ELISKA Kit (R&D Systems, DY6220), while an amount of total cell proteins was quantified and corrected by a BCA method, and the results of calculating a concentration response curve of each drug and a concentration (IC30) showing 30% inhibitory activity are shown in FIG. 13.
When compound 1 was treated in combination with the PPAR agonist or the ACC inhibitor, the CI was calculated to be 0.7 and 0.6, which was smaller than 1, thus confirming a synergistic effect. And the CI was calculated to be 1 when treated in combination with the FXR agonist, thus confirming an additive effect.

[5] = system: mouse model with induced nonalcoholic steatohepatitis; experiment: Galectin-3 immunostaining in liver tissues, NASH mice; type: in vivo, C57BL/6J mouse; conditions: administered alone, compound 1 100 mg/kg/day
Method: as §1
To compare the degree of infiltration of inflammatory cells in liver tissues, an expression level of galectin-3, an indicator of increased expression in activated macrophages, was measured through immunostaining. After that, a ratio of the area stained by the galectin-3 antibody in the unit area was calculated through image analysis so as to evaluate the medicinal efficacy of ameliorating inflammation according to the co-administration.

[6] = system: mouse model with induced nonalcoholic steatohepatitis; experiment: Blood AST and ALT, NASH mice; type: in vivo, C57BL/6J mouse; conditions: FIG. 11; compound 1 100 mg/kg/day, evogliptin 200 mg/kg/day, alone or in combination; combination compared to both drugs alone
Method: as §1
The mouse model with induced nonalcoholic steatohepatitis was subjected to autopsy, after which plasma was isolated therefrom, so as to quantify aspartate aminotransferase (AST) and alanine aminotransferase (ALT) by using an automatic blood analyzer (Konelab 20i).

[7] = system: human monocyte cell line (THP-1); experiment: Inflammatory cytokine secretion during differentiation of human monocytes into macrophages (PMA, then LPS); type: cell-based; conditions: FIG. 12; THP-1, PMA 50 ng/ml 48 hours, LPS 0.5 ng/ml four hours; compound 1 alone
Method: A human monocyte cell line (THP-1, ATCC® TIB-202™) was treated with 50 ng/ml of phorbol 12-myristate 13-acetate (PMA) for 48 hours and differentiated into macrophages, while being treated with compound 1 in combination with elafibranor as a PPAR agonist, firsocostat as an ACC inhibitor, obeticholic acid as a FXR agonist or cenicriviroc as a CCR2/5 dual antagonist, then replaced with a serum-free medium, and then treated with lipopolysaccharides (LPS; 0.5 ng/ml) for four hours, after which […], tumor necrosis factor α (TNFα; R&D Systems, DY210), and C—C motif chemokine ligand 2 (CCL2; R&D Systems, DY279), which are inflammatory cytokines secreted into the medium, were quantified with a commercially available ELISKA kit, so as to evaluate an effect on monocyte differentiation, and the results thereof are shown in FIG. 12.

[8] = system: mouse model with induced nonalcoholic steatohepatitis; experiment: Relative proportion of lipid droplets in liver tissues (image analysis of HE-stained tissue), NASH mice; type: in vivo, C57BL/6J mouse; conditions: for relative area of lipid droplets in liver tissues / ratio of fat (lipid droplets area) in liver tissues: compound 1 100 mg/kg/day, alone or in combination; for relative area of lipid droplets in liver tissues: evogliptin 200 mg/kg/day; for ratio of fat (lipid droplets area) in liver tissues: FIG. 5, elafibranor 30 mg/kg/day
Method: as §1
For quantitative comparison of fat accumulation in liver tissues, the HE-stained tissues were subjected to an image analysis to calculate a relative proportion of lipid droplets per unit area, thereby evaluating a medicinal efficacy of co-administration.

[9] = NASH mice, compound 1 alone 100 mg/kg/day
[10] = compound 1 100 mg/kg/day alone or combined with sitagliptin 150 mg/kg/day
[11] = FIG. 8, evogliptin 200 mg/kg/day
[12] = FIG. 9, elafibranor 30 mg/kg/day
[13] = FIG. 2, evogliptin 200 mg/kg/day, drug-diet admixture 8 to 12 weeks
[14] = FIG. 3, elafibranor 30 mg/kg/day
[15] = FIG. 6, evogliptin 200 mg/kg/day
[16] = FIG. 7, elafibranor 30 mg/kg/day

SMILES | expression of αSMA in liver tissues [2, 11] | expression of αSMA in liver tissues [2, 12] | NAFLD activity score (NAS) [3, 13] | NAFLD activity score (NAS) [3, 14] | protein expression of pro-collagen 1a1 induced by TGFβ1 [4] | expression of galectin-3 in liver tissues [5, 15] | expression of galectin-3 in liver tissues [5, 16] | plasma concentration of ALT [6] | plasma concentration of AST [6] | relative area of lipid droplets in liver tissues ([8]; FIG. 4) | ratio of fat (lipid droplets area) in liver tissues [8] | further results
CCc1cnc(N2CCC(CCCOc3cc(F)c(-c4noc(C(C)C)n4)c(F)c3)CC2)nc1 [compound 1, 3-(4-(3-(1-(5-ethylpyrimidin-2-yl)piperidin-4-yl)propoxy)-2,6-difluorophenyl)-5-isopropyl-1,2,4-oxadiazole] | significantly reduced | significantly reduced | significantly improved | significantly improved | inhibited in a concentration-dependent manner | significantly reduced | significantly decreased | significantly reduced | significantly reduced | significantly reduced | significantly reduced | plasma concentration of CCL2 [1, 9]: significantly decreased; plasma concentration of CXCl2 [1, 9]: significantly decreased; plasma concentration of CXCl10 [1, 9]: significantly decreased; plasma IL2 [1, 10]: tendency of decreasing; plasma TNFα [1, 10]: tendency of decreasing; plasma TIMP1 ([1]; compound 1 alone 100 mg/kg/day): significantly decreased; 30% inhibitory concentration (IC30), pro-collagen 1a1 ([4]; treated alone): 550 nM; CCL2 secretion [7]: decreased in a concentration-dependent manner; IL-1β secretion [7]: decreased in a concentration-dependent manner; TNFα secretion [7]: decreased in a concentration-dependent manner; size of lipid droplets in liver tissues ([8]; FIG. 4, compound 1 alone 100 mg/kg/day): decreased
CSc1ccc(C(=O)/C=C/c2cc(C)c(OC(C)(C)C(=O)O)c(C)c2)cc1 [elafibranor, reference compound] | – | no effect of significantly reducing | – | significantly improved | relatively low response | – | no effect of significantly decreasing | – | – | – | significantly reduced | –
CC(C)(C)OC[C@@H]1C(=O)NCCN1C(=O)C[C@H](N)Cc1cc(F)c(F)cc1F [evogliptin, reference compound] | significantly reduced | – | insignificant | – | – | significantly reduced | – | significantly reduced | significantly reduced | tendency of decreasing | – | –
COc1ccccc1[C@H](Cn1c(=O)n(C(C)(C)C(=O)O)c(=O)c2c(C)c(-c3ncco3)sc21)OC1CCOCC1 [firsocostat, reference compound] | – | – | – | – | relatively low response | – | – | – | – | – | – | –
